Measured values: article PMC11719397, “Monophthalates of betulinic acid and related pentacyclic triterpenes inhibit efficiently the SOS-mediated nucleotide exchange and impact PI3K/AKT signaling in oncogenic K-RAS4B proteins” (RSC Advances, 2025)
In brackets after ≈: the same amount, converted by molar mass.

Legend:
K-RAS4B wild-type [1] = target: K-RAS4B wild-type (Homo sapiens, UniProt P01116); assay: Nucleotide exchange assay (SOS1-mediated GDP/GTP exchange, GDP-Glo), K-RAS4B wild-type; assay type: biochemical; conditions: K-RAS4B GDP/GTP exchange; eight data points, at least three determinations; (*) single determination
Chain of K-RAS4B wild-type (Homo sapiens, UniProt P01116) (P01116 1-188 isoform P01116-2): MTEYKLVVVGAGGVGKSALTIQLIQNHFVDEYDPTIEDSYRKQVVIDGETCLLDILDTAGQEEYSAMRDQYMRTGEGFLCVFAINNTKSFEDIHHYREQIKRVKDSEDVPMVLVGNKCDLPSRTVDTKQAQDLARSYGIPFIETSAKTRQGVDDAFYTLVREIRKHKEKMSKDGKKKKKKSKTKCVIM

K-RAS4B^G12D [2] = target: T1, K-RAS4B^G12D (Homo sapiens, UniProt P01116, G12D); assay: biochemical; conditions: for IC50: K-RAS4B GDP/GTP exchange, eight data points, at least three determinations
Target sequence in this assay (P01116 1-188 isoform P01116-2 G12D): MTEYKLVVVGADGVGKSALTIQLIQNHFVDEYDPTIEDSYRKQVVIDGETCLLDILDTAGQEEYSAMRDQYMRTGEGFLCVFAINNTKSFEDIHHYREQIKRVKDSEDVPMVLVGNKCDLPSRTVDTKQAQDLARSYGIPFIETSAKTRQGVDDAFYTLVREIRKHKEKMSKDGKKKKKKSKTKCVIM

K-RAS4B^wt = target: T2, K-RAS4B^wt (Homo sapiens, UniProt P01116); assay: NanoBRET target engagement assay, K-RAS4B^wt (displacement of BI2852 tracer from SI/SII site); assay type: cell-based; conditions: live cells; displacement of BI2852 from the K-Ras4B SI/II binding-site; read-out: K-RAS4B^wt NanoBRET TE KD
T2 construct: a fusion protein of LgBiT and full-length RAS; a fusion protein of SmBiT(q) and full-length RAS in cells; expressed in transfected cells; host or cells: HEK239T (so in the source)
T2 sequence (P01116 1-188 isoform P01116-2): as the sequence (P01116 1-188 isoform P01116-2) above
T2 sequence (P01116 1-188 isoform P01116-2): as above
Description: (§1) To obtain further information on the mode of action, selected GDP/GTP exchange inhibitors were studied in additional assays (Table 3). A target engagement assay, which is based on bioluminescence resonance energy transfer (BRET), was used to measure target engagement at protein complexes in live cells (Fig. 5a). The BRET effect results from an energy transfer between the target luciferase fusion protein and a cell-permeable fluorescent tracer in intact cells.
(§2) Fig. 5 Schematic illustrations of the RAS cellular target engagement and RAS:SOS protein–protein interaction assay. (a) NanoBRET target engagement (TE) assay: when the fusion proteins LgBiT-RAS and SmBiT(q)-RAS interact in live-cells, they form an active luciferase as a BRET donor. The BRET receptor is a fluorescent NanoBRET® tracer that binds specifically to K-RAS. K-RAS binders displace the tracer and reduce the BRET signal in a dose-dependent manner.
(§3) The NanoBRET® TE Intracellular RAS Assay uses NanoBiT® Technology, a structural complementation system comprised of a large luciferase subunit (LgBiT) and a small complementary peptide (SmBiT(q)). Specifically, a fusion protein of LgBiT and full-length RAS is co-expressed with a fusion protein of SmBiT(q) and full-length RAS in cells. When the RAS proteins interact and form multimers, the LgBiT and SmBiT(q) subunits come together to form an active luciferase enzyme that serves as the BRET donor. The energy acceptor is a cell-permeable fluorescent NanoBRET® tracer that binds specifically to RAS. […] After mixing the plate for 1 min and incubation at room temperature for 15 min 1 μL of NanoBRET TE RAS Tracer 01 (final concentration 1 μM) was added followed by another mixing step. After 2 h incubation (37 °C, 5% CO2) and 15 min at room temperature 5 μL of NanoBRET™ Nano-Glo® substrate was added followed by a mixing step.

[3] = target: (GTP)K-RAS4B^wt:SOS1 complex (Homo sapiens, UniProt P01116+Q07889); assay: HTRF K-RAS^wt:SOS protein-protein interaction assay
Chain of (GTP)K-RAS4B^wt:SOS1 complex (P01116 1-188 isoform P01116-2): as above
Chain of (GTP)K-RAS4B^wt:SOS1 complex (Q07889 564-1049 limits assumed): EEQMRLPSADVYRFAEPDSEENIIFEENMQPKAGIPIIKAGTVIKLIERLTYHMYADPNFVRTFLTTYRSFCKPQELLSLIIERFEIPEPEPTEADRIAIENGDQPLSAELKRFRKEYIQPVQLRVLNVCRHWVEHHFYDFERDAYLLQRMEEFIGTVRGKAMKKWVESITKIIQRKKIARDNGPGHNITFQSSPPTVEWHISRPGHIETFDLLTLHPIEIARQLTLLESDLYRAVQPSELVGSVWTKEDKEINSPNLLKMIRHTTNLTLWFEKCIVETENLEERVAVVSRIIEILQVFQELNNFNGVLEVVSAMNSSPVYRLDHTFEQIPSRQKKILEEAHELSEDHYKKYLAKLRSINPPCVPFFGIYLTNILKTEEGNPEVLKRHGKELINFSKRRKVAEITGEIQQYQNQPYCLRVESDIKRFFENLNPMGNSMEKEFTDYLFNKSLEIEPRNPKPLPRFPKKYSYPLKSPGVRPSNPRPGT
Procedure: The interaction of (GTP)K-RAS4B^wt and SOS was measured with a HTRF assay using an SOS-specific antibody labeled with terbium cryptate as HTRF (homogeneous time-resolved fluorescence) donor and a K-RAS4B^wt specific antibody labeled with an HTRF acceptor (XL665).[52]
To test the compounds effect on the interaction of K-RAS and SOS1 proteins a commercial assay from Revvity (product code 64[sequence]) was used. The K-RAS WT/SOS1 PPI assay includes tagged human recombinant partners (K-RAS WT and SOS1) and labelled anti-tag reagents for HTRF detection. Without an inhibitor, K-RAS WT loaded with GTP binds to SOS1, and the binding of each detection reagent to its tagged target generates an HTRF signal. In the presence of K-RAS WT/SOS1 inhibitors or GTP competitors, the HTRF signal decreases.
After an incubation step for 10 min at room temperature 3 μL Tag1-KRAS protein was added followed by 7.5 μL detection mix containing anti-Tag2 antibody labeled with Terbium cryptate and anti-Tag1 antibody labeled with XL665. […] IC50 values were determined from the sigmoidal dose response curves with the Scigilian Analyze software (Scigilian, Monteral, Canada).

K-RAS4B^G12D [4] = target: T1, K-RAS4B^G12D; assay: cell-based; design: a fusion protein of LgBiT and full-length RAS; a fusion protein of SmBiT(q) and full-length RAS in cells; expressed in transfected cells; host or cells: HEK239T (so in the source); conditions: live cells; displacement of BI2852 from the K-Ras4B SI/II binding-site; read-out: K-RAS4B^G12D NanoBRET TE KD
Description: as §1, §2, §3
Target sequence in this assay (P01116 1-188 isoform P01116-2 G12D): as the sequence (P01116 1-188 isoform P01116-2 G12D) above
Target sequence in this assay (P01116 1-188 isoform P01116-2 G12D): as above

K-RAS4B G12V = K-RAS4B G12V (Homo sapiens, UniProt P01116, G12V); assay: Nucleotide exchange assay (SOS1-mediated GDP/GTP exchange, GDP-Glo), K-RAS4B G12V; assay type: biochemical; conditions: eight data points, at least three determinations, (*) single determination
Chain of K-RAS4B G12V (P01116 1-188 isoform P01116-2 G12V): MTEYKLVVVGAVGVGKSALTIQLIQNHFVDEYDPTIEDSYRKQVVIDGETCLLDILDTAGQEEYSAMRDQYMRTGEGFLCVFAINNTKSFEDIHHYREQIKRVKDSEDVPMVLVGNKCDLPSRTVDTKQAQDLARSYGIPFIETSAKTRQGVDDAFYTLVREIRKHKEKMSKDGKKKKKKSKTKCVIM

[5] = test system: ERK phosphorylation in SNU-1 cells (K-RAS4B^G12D); assay: HTRF ERK phosphorylation assay in SNU-1 cells; assay type: cell-based; conditions: Homo sapiens, SNU1, read-out: SNU-1 pERK inhibition IC50
Procedure: (§4) For selected betulinic acid derivatives quantitative ERK and AKT phosphorylation was measured in SNU-1 (K-RAS4B^G12D) and A375 cells (K-RAS4B^wt) to determine whether pentacyclic triterpenes act via the RAS-RAF-MEK-ERK or the RAS-PI3K-PDK1-AKT downstream cascade (Table 2). The betulinic acid derivatives tested, had no activity on the ERK pathway, but inhibited AKT phosphorylation with micromolar IC50 values in agreement with literature reports.[50,51] […] No activity was detected in A375 cells carrying a BRAF but no K-RAS mutation.
(§5) SNU-1 cells harbouring the K-RASG12D mutation (primary carcinoma of the stomach), were grown in RPMI medium with 10% FBS (fetal bovine serum) and 1% L-Gln. Cells were plated in white small volume cell culture 384 well microplates (Greiner BioOne GmbH) at a density of 50.000 cells per well/6 μL in RPMI medium with 1% L-glut (serum-free medium). The plated cells were placed in a high humidity incubator (37 °C, 5% CO2 and 90% humidity) to avoid evaporation of the small amount of medium for 3 hours before the compounds were added. With the Echo520 liquid handler the cells were treated with a 3-fold 8-point serial dilution of the compounds, with a top final concentration of 330 μM and a final DMSO concentration of 1%. After compound transfer, cells were incubated for 1 hour in the high humidity incubator before the cells were treated with 3 μL of 9 nM EGF diluted in serum-free medium (final EGF concentration in the well 3 nM) for 15 minutes. The lysis buffer from the Phospho-ERK 1/2 (Thr202/Tyr204)- and the Total ERK1/2 LANCE Ultra TR-FRET Cellular Detection Kit (PerkinElmer Inc.) was prepared to a 4-fold concentration in water. Then 3 μL of the lysis buffer were added to each well and the plates were shaken at 300 rpm for 30 minutes at room temperature. During this incubation the antibody detection mix was prepared according to the manufacturer's protocol. In the final step 3 μL of antibody detection mix were added to each well. The plates were sealed with an aluminium sticky foil and incubated over night at room temperature for 20 hours. The detection was performed with the EnVision2104 Multilabel Reader.

[6] = test system: AKT phosphorylation in SNU-1 cells (K-RAS4B^G12D); assay: HTRF AKT phosphorylation assay in SNU-1 cells; assay type: cell-based; conditions: Homo sapiens, SNU1, read-out: SNU-1 pAKT inhibition IC50
Procedure: as §4, §5

[7] = test system: ERK phosphorylation in A375 cells (K-RAS4B^wt); assay: HTRF ERK phosphorylation assay in A375 cells; assay type: cell-based; conditions: Homo sapiens, A-375; A375 cells (K-RAS4B^wt, BRAF mutation); two determinations; read-out: A375 pERK inhibition IC50
Procedure: as §4, §5

[8] = test system: AKT phosphorylation in A375 cells (K-RAS4B^wt); assay: HTRF AKT phosphorylation assay in A375 cells; assay type: cell-based; conditions: Homo sapiens, A-375; A375 cells (K-RAS4B^wt, BRAF mutation); two determinations; read-out: A375 pAKT inhibition IC50
Procedure: as §4, §5

K-RAS4B wild-type [9] = assay: Nucleotide exchange assay (SOS1-mediated GDP/GTP exchange, GDP-Glo), K-RAS4B wild-type; assay type: biochemical; conditions: GDP/GTP exchange IC50 of wild-type versus G12D/G12V mutants

| Compound | IC50 (K-RAS4B wild-type [1]) [µM] | IC50 (K-RAS4B^G12D [2]) [µM] | Kd (K-RAS4B^wt) [µM] | solubility (Solubility) [µM] | Kd [3] [µM] | Kd (K-RAS4B^G12D [4]) [µM] | IC50 (K-RAS4B G12V) [µM] | IC50 [5] [µM] | IC50 [6] [µM] | IC50 [7] [µM] | IC50 [8] [µM] | selectivity factor, mutant versus K-RAS4B^wt (K-RAS4B wild-type [9]) | inhibition of GDP/GTP exchange (in words) (K-RAS4B^G12D [2]; K-RAS4B form mostly not given, inactive = IC50 > 100 μM (Fig. 3 legend)) |
| --- | --- | --- | --- | --- | --- | --- | --- | --- | --- | --- | --- | --- | --- |
| C=C(C)[C@@H]1CC[C@]2(C(=O)O)CC[C@]3(C)[C@H](CC[C@@H]4[C@@]5(C)CC[C@H](OC(=O)c6sccc6C(=O)O)C(C)(C)[C@@H]5CC[C@]43C)[C@@H]12 [Compound 18] | 1.27 ± 0.69 | 1.83 ± 1.45 | 21.8 | 255 (≈ 156 µg/mL) | > 50 | 20.1 |  |  |  |  |  |  |  |
| C=C(C)[C@@H]1CC[C@]2(C(=O)O)CC[C@]3(C)[C@H](CC[C@@H]4[C@@]5(C)CC[C@H](OC(=O)c6nccnc6C(=O)O)C(C)(C)[C@@H]5CC[C@]43C)[C@@H]12 [Compound 23] | 23.3 ± 2.9 | 11.8 ± 1 |  | 434 (≈ 263 µg/mL) |  |  | 9.61 ± 4.82 | > 1000 | 61.7 | > 1000 | > 1000 |  |  |
| C=C(C)[C@@H]1CC[C@]2(C(=O)O)CC[C@]3(C)[C@H](CC[C@@H]4[C@@]5(C)CC[C@H](OC(=O)c6c(F)ccc(F)c6C(=O)O)C(C)(C)[C@@H]5CC[C@]43C)[C@@H]12 [Compound 24] | 15.7 ± 4.3 | 8.63 ± 3.72 |  | 378 (≈ 242 µg/mL) |  |  | 15.4 ± 2.9 | 134 | 13 | > 1000 | > 1000 |  |  |
| C=C(C)[C@@H]1CC[C@]2(C(=O)O)CC[C@]3(C)[C@H](CC[C@@H]4[C@@]5(C)CC[C@H](OC(=O)c6cc(F)c(F)cc6C(=O)O)C(C)(C)[C@@H]5CC[C@]43C)[C@@H]12 [Compound 25] | 39.1 ± 5.4 | 5 ± 0.91 |  | 240 (≈ 154 µg/mL) |  |  | 9.79 ± 3.41 | > 300 | 18.1 | > 1000 | > 1000 | 4–6 |  |
| C=C(C)[C@@H]1CC[C@]2(C(=O)O)CC[C@]3(C)[C@H](CC[C@@H]4[C@@]5(C)CC[C@H](OC(=O)c6cc(OC)c(OC)cc6C(=O)O)C(C)(C)[C@@H]5CC[C@]43C)[C@@H]12 [Compound 26] | > 100 | 36.1 ± 14.7 |  | 158 (≈ 105 µg/mL) |  |  | 26.4 ± 3.9 | > 300 | 83.7 | > 1000 | > 1000 |  | only moderate activity |
| C=C(C)[C@@H]1CC[C@]2(COC(=O)/C=C\C(=O)O)CC[C@]3(C)[C@H](CC[C@@H]4[C@@]5(C)CC[C@H](O)C(C)(C)[C@@H]5CC[C@]43C)[C@@H]12 [Compound 30] | 69.2 ± 6.8 | 6.8 ± 2.32 |  |  |  |  | 3.19 ± 0.19 |  |  |  |  | 15–20 |  |
| C=C(C)[C@@H]1CC[C@]2(COC(=O)CCC(=O)O)CC[C@]3(C)[C@H](CC[C@@H]4[C@@]5(C)CC[C@H](OC(=O)CCC(=O)O)C(C)(C)[C@@H]5CC[C@]43C)[C@@H]12 [Compound 32] | 1.01 ± 0.31 | 0.71 ± 0.18 | 40.8 |  | > 100 | 29.1 | 1.37 ± 0.28 |  |  |  |  |  |  |
| C=C(C)[C@@H]1CC[C@]2(COC(=O)CCC(=O)O)CC[C@]3(C)[C@H](CC[C@@H]4[C@@]5(C)CC[C@H](OC(=O)c6cc(F)c(F)cc6C(=O)O)C(C)(C)[C@@H]5CC[C@]43C)[C@@H]12 [Compound 34] | 1.18 ± 0.02 | 0.66 ± 0.13 |  | 410 (≈ 298 µg/mL) | > 100 | > 100 | 2.85 ± 0.14 |  |  |  |  |  |  |
| C[C@H]1[C@H](C)CC[C@]2(C(=O)O)CC[C@]3(C)C(=CC[C@@H]4[C@@]5(C)CC[C@H](OC(=O)c6c(F)ccc(F)c6C(=O)O)C(C)(C)[C@@H]5CC[C@]43C)[C@H]12 [Compound 36] | 3.46 ± 1.94 | 2.64 ± 1.75 |  | 424 (≈ 272 µg/mL) | > 50 | > 50 | 2.52 ± 0.99 |  |  |  |  |  |  |
| C[C@H]1[C@H](C)CC[C@]2(C(=O)O)CC[C@]3(C)C(=CC[C@@H]4[C@@]5(C)CC[C@H](OC(=O)c6cc(F)c(F)cc6C(=O)O)C(C)(C)[C@@H]5CC[C@]43C)[C@H]12 [Compound 37] | 3.94 ± 1.02 | 2.53 ± 0.63 |  | 220 (≈ 141 µg/mL) | > 50 | 16.6 | 2.15 ± 0.31 |  |  |  |  |  |  |
